Where a name gives a salt, the structure may show the parent alone. Calls of active or inactive are those of the source. On the calls: in the data inactive means no Kd found up to 30 µM.
Key:
[1] = molecular target: T1, Very long-chain specific acyl-CoA dehydrogenase, mitochondrial (Homo sapiens, UniProt P49748)
T1 sequence (P49748 whole entry): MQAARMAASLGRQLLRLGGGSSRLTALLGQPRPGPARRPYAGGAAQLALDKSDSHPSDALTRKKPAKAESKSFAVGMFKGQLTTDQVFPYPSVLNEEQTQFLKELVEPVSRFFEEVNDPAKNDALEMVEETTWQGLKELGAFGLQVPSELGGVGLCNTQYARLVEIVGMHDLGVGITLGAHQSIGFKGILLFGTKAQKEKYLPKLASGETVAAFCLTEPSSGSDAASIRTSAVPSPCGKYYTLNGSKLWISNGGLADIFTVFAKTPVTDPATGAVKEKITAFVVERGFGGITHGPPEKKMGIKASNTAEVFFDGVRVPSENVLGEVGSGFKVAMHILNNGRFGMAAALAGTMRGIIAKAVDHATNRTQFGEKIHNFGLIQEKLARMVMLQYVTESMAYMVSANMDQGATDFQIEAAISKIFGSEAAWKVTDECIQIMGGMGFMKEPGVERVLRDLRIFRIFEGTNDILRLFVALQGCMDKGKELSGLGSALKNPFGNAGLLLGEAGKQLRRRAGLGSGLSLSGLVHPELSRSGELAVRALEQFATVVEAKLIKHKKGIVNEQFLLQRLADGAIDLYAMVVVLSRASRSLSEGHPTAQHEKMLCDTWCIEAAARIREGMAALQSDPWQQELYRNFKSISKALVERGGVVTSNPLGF

[2] = molecular target: Serine/threonine-protein kinase MRCK alpha (Homo sapiens, UniProt Q5VT25)
dCTP pyrophosphatase 1 = molecular target: T2, dCTP pyrophosphatase 1 (Homo sapiens, UniProt Q9H773)
T2 sequence (Q9H773 whole entry): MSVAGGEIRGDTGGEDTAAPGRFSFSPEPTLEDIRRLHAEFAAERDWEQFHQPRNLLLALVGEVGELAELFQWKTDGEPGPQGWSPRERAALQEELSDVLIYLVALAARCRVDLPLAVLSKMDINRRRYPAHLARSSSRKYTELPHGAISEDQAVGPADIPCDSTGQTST

[3] = molecular target: Mitogen-activated protein kinase 1 (Homo sapiens, UniProt P28482)
[4] = molecular target: T3, RNA cytidine acetyltransferase (Homo sapiens, UniProt Q9H0A0)
T3 sequence (Q9H0A0 whole entry): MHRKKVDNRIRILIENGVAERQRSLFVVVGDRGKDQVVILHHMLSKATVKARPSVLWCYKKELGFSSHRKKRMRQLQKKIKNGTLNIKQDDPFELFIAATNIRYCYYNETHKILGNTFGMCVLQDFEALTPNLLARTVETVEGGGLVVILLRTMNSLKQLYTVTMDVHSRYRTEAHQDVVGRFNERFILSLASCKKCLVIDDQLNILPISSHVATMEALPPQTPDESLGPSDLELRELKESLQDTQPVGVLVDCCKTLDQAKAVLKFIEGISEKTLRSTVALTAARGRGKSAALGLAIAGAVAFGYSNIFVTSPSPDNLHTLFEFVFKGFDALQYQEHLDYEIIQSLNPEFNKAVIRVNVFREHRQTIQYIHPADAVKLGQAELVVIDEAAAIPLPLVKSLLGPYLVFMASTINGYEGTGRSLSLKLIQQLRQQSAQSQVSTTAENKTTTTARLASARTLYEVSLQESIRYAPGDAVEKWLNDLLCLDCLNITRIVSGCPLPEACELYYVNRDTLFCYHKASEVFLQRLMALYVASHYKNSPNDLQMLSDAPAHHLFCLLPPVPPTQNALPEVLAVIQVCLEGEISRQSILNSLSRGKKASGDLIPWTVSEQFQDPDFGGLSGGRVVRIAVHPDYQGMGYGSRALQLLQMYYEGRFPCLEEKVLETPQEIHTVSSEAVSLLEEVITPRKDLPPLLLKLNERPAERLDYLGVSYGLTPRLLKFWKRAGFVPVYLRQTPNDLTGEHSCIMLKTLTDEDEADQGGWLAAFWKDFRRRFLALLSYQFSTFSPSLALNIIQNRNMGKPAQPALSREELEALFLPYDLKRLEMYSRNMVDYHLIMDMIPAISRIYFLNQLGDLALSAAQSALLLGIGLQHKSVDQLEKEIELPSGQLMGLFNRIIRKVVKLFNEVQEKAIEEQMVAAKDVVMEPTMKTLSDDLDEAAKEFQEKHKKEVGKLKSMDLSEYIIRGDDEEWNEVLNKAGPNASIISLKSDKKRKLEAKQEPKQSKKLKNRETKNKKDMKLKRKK

[5] = molecular target: T4, Bifunctional phosphoribosylaminoimidazole carboxylase/phosphoribosylaminoimidazole succinocarboxamide synthetase (Homo sapiens, UniProt P22234)
T4 sequence (P22234 whole entry): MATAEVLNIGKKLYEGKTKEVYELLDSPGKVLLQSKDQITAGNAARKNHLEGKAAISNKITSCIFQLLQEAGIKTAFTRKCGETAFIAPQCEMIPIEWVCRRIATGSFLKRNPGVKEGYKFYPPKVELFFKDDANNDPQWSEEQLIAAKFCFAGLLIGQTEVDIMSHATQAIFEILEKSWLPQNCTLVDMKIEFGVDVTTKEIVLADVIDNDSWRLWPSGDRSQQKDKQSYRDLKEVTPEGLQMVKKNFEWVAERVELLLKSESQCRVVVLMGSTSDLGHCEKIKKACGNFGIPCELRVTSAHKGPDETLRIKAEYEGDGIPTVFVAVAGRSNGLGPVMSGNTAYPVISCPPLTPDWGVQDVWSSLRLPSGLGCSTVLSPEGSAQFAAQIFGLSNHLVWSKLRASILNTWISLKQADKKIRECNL

[6] = molecular target: Serine/threonine-protein kinase PAK 2 (Homo sapiens, UniProt Q13177)
[7] = molecular target: T5, Membrane-associated tyrosine- and threonine-specific cdc2-inhibitory kinase (Homo sapiens, UniProt Q99640)
T5 sequence (Q99640 whole entry): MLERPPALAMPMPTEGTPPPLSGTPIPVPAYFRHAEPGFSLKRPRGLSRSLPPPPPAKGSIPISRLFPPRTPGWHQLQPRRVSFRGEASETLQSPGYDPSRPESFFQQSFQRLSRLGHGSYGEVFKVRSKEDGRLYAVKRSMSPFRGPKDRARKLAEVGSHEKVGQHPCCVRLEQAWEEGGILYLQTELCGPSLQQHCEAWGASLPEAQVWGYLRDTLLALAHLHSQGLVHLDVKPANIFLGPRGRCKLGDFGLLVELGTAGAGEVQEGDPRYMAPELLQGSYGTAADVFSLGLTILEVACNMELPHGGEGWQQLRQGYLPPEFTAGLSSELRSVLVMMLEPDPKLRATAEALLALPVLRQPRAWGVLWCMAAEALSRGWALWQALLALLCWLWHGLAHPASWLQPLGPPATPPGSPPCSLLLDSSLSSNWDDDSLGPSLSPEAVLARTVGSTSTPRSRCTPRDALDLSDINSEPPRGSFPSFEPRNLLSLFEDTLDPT

Mitogen-activated protein kinase 1, sequence (P28482 whole entry): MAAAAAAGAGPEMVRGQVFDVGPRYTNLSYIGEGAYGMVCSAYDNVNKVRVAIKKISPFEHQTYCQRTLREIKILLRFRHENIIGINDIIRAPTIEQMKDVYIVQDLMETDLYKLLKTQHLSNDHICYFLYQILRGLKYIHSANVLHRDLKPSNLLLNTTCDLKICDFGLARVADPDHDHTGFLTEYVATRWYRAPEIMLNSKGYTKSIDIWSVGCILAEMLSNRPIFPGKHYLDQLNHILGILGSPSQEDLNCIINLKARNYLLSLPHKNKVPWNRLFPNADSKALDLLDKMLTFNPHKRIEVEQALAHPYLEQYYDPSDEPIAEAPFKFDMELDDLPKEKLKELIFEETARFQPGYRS
Serine/threonine-protein kinase MRCK alpha, sequence (Q5VT25 whole entry): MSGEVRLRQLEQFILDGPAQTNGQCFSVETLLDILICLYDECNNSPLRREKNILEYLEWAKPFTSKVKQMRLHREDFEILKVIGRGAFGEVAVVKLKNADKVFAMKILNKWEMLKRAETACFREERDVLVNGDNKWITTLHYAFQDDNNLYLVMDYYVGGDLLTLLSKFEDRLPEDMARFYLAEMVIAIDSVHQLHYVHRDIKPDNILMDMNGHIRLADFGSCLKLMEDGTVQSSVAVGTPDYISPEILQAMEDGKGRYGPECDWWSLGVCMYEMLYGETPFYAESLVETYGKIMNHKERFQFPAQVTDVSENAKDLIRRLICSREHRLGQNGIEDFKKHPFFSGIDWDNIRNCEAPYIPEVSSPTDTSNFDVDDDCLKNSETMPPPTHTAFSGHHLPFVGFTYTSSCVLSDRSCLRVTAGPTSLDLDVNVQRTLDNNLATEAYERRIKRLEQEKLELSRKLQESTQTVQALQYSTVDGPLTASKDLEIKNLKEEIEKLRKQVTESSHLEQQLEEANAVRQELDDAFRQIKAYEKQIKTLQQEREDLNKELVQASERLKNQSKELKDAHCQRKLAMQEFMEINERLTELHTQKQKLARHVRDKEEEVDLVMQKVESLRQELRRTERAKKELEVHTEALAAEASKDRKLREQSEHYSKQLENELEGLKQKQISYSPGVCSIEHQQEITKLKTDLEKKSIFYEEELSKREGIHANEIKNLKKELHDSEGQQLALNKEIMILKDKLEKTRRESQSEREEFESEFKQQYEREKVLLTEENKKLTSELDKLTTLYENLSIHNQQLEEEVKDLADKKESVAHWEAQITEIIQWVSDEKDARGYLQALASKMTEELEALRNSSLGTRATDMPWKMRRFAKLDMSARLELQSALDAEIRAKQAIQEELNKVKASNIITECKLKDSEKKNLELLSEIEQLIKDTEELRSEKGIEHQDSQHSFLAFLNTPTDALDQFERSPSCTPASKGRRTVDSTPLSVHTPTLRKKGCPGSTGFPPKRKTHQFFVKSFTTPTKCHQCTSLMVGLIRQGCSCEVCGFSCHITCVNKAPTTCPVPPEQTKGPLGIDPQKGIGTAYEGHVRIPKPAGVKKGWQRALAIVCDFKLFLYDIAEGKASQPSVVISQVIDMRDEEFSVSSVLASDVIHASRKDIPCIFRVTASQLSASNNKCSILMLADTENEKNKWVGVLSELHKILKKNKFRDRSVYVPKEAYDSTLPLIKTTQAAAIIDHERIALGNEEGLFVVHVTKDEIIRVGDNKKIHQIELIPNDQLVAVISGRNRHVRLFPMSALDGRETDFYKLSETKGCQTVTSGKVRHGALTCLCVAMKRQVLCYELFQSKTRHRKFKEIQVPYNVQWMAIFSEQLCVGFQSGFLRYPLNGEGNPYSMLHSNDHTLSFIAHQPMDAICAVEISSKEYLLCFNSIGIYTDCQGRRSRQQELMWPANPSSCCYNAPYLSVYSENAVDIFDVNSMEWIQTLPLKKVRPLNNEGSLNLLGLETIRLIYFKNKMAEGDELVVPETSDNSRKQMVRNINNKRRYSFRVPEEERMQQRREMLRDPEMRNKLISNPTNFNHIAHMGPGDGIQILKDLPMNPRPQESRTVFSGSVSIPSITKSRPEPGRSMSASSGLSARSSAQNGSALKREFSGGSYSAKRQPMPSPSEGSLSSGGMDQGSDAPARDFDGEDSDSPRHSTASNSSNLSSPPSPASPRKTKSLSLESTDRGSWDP
Serine/threonine-protein kinase PAK 2, sequence (Q13177 whole entry): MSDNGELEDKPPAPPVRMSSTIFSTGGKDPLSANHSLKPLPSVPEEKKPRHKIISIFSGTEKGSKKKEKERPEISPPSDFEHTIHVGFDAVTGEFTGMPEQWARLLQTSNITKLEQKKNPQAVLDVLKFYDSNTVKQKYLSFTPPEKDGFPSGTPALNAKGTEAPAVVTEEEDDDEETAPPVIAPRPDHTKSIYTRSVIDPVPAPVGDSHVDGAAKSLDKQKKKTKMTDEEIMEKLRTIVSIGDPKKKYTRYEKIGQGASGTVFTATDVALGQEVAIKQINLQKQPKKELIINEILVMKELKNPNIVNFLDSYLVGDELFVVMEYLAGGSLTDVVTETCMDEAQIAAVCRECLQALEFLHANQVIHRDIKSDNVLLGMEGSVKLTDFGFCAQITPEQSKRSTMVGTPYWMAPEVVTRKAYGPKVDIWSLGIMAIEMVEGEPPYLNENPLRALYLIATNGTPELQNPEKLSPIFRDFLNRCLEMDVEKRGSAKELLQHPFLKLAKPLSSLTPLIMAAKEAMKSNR

Structure (SMILES)	Kd [1]	Kd [2]	Kd (dCTP pyrophosphatase 1)	Kd [3]	Kd [4]	Kd [5]	Kd [6]	Kd [7]
CCS(=O)(=O)N1CCN(c2ccc(Nc3ncc(C(N)=O)c(NC4CC4)n3)cc2)CC1 [Cerdulatinib Hydrochloride]	> 30 µM (inactive)	> 30 µM (inactive)	> 30 µM (inactive)	> 30 µM (inactive)	> 30 µM (inactive)	> 30 µM (inactive)	> 30 µM (inactive)	> 30 µM (inactive)
O=C(Nc1nc2cccc(-c3ccc(CN4CCS(=O)(=O)CC4)cc3)n2n1)C1CC1 [FILGOTINIB]	> 30 µM (inactive)	> 30 µM (inactive)	> 30 µM (inactive)	> 30 µM (inactive)	> 30 µM (inactive)	> 30 µM (inactive)	> 30 µM (inactive)	> 30 µM (inactive)
Cc1cccc(-c2nn3c(c2-c2ccnc4ccc(C(N)=O)cc24)CCC3)n1 [GALUNISERTIB]	> 30 µM (inactive)	> 30 µM (inactive)	> 30 µM (inactive)	> 30 µM (inactive)	> 30 µM (inactive)	> 30 µM (inactive)	> 30 µM (inactive)	> 30 µM (inactive)
CNC(=O)c1cccc2cc(Oc3ccnc4cc(OCC5(N)CC5)c(OC)cc34)ccc12 [LUCITANIB]	> 30 µM (inactive)	> 30 µM (inactive)	> 30 µM (inactive)	> 30 µM (inactive)	> 30 µM (inactive)	> 30 µM (inactive)	> 30 µM (inactive)	> 30 µM (inactive)
CNC(=O)c1nn(C)c2c1C(C)(C)Cc1cnc(Nc3ccc(N4CCN(C)CC4)cc3)nc1-2 [MILCICLIB]	> 30 µM (inactive)	> 30 µM (inactive)	1.59 µM (active)	> 30 µM (inactive)	> 30 µM (inactive)	> 30 µM (inactive)	> 30 µM (inactive)	> 30 µM (inactive)
FC(F)(F)c1ccc(/C=C/c2nc(COc3ccc(CCCCn4ccnn4)cc3)co2)cc1 [MUBRITINIB]	> 30 µM (inactive)	> 30 µM (inactive)	> 30 µM (inactive)	> 30 µM (inactive)	> 30 µM (inactive)	> 30 µM (inactive)	> 30 µM (inactive)	> 30 µM (inactive)
COc1ncc(-c2ccc3nccc(-c4ccnnc4)c3c2)cc1NS(=O)(=O)c1ccc(F)cc1F [OMIPALISIB]	> 30 µM (inactive)	> 30 µM (inactive)	> 30 µM (inactive)	> 30 µM (inactive)	> 30 µM (inactive)	> 30 µM (inactive)	> 30 µM (inactive)	> 30 µM (inactive)
CCOc1cc2ncc(C#N)c(Nc3ccc(F)c(Cl)c3)c2cc1NC(=O)/C=C/CN(C)C [PELITINIB]	> 30 µM (inactive)	> 30 µM (inactive)	> 30 µM (inactive)	> 30 µM (inactive)	> 30 µM (inactive)	> 30 µM (inactive)	> 30 µM (inactive)	> 30 µM (inactive)
CCCCCCCCCCCCCCCCCCOP(=O)([O-])OC1CC[N+](C)(C)CC1 [PERIFOSINE]	> 30 µM (inactive)	> 30 µM (inactive)	> 30 µM (inactive)	> 30 µM (inactive)	> 30 µM (inactive)	> 30 µM (inactive)	> 30 µM (inactive)	> 30 µM (inactive)

Continued, values first:

Kd [1]	Kd [2]	Kd (dCTP pyrophosphatase 1)	Kd [3]	Kd [4]	Kd [5]	Kd [6]	Kd [7]	Structure (SMILES)
> 30 µM (inactive)	> 30 µM (inactive)	> 30 µM (inactive)	> 30 µM (inactive)	> 30 µM (inactive)	> 30 µM (inactive)	> 30 µM (inactive)	> 30 µM (inactive)	CCn1cc(-c2ccnc3[nH]c(-c4cccc(CN(C)C)c4)cc23)c(-c2ccc(NC(=O)N(C)C)cc2)n1 [GSK-1070916]
> 30 µM (inactive)	> 30 µM (inactive)	> 30 µM (inactive)	> 30 µM (inactive)	> 30 µM (inactive)	> 30 µM (inactive)	> 30 µM (inactive)	> 30 µM (inactive)	COc1ccc(S(=O)(=O)N(C(C)=O)c2ccccc2/C=C/c2cc[n+]([O-])cc2)cc1 [HMN-214]
> 30 µM (inactive)	> 30 µM (inactive)	> 30 µM (inactive)	> 30 µM (inactive)	> 30 µM (inactive)	> 30 µM (inactive)	> 30 µM (inactive)	> 30 µM (inactive)	NC1(c2ccc(-c3nc4ccn5c(=O)[nH]nc5c4cc3-c3ccccc3)cc2)CCC1 [MK-2206]
> 30 µM (inactive)	> 30 µM (inactive)	> 30 µM (inactive)	> 30 µM (inactive)	> 30 µM (inactive)	> 30 µM (inactive)	> 30 µM (inactive)	> 30 µM (inactive)	CN(C[C@@H]1COCCO1)S(=O)(=O)Nc1ccc2ccc3ncc(-c4cnn(C)c4)cc3c(=O)c2c1 [MK-2461]
> 30 µM (inactive)	> 30 µM (inactive)	> 30 µM (inactive)	> 30 µM (inactive)	> 30 µM (inactive)	> 30 µM (inactive)	> 30 µM (inactive)	> 30 µM (inactive)	Cn1cc(-c2cnc3ccc4ccc(CS(=O)(=O)NCc5ccccn5)cc4c(=O)c3c2)cn1 [MK-8033]
> 30 µM (inactive)	> 30 µM (inactive)	> 30 µM (inactive)	1.96 µM (active)	> 30 µM (inactive)	> 30 µM (inactive)	> 30 µM (inactive)	> 30 µM (inactive)	Cc1nc(Nc2n[nH]c3c2CN(C(=O)N[C@H](CN(C)C)c2ccccc2)C3(C)C)c2sccc2n1 [PF-03758309]
